Structures can show the parent of a compound that is named as a salt. Where two headings read alike, the source gives them in different places.
Legend:
human BACE1 (1-460):Fc = human BACE1 (1-460):Fc (Homo sapiens (Human), UniProt P56817); assay: BACE1 FRET Assay; format: biochemical; conditions: purified recombinant huBACE1:Fc, FRET substrate, pH 4.6; Mean ± SEM
Method: For in vitro enzymatic and cellular assays, test compounds are prepared in DMSO to make up a 10 mM stock solution. The stock solution is serially diluted in DMSO to obtain a ten-point dilution curve with final compound concentrations ranging from 10 μM to 0.05 nM in a 96-well round-bottom plate before conducting the in vitro enzymatic and whole cell assays.
Human BACE1 (accession number: AF190725) is cloned from total brain cDNA by RT-PCR. The nucleotide sequences corresponding to amino acid sequences #1 to 460 are inserted into the cDNA encoding human IgG1 (Fc) polypeptide (Vassar et al., Science, 286, 735-742 (1999)). This fusion protein of BACE1 (1-460) and human Fc, named huBACE1:Fc, is constructed into the pJB02 vector. Human BACE1 (1-460):Fc (huBACE1:Fc) is transiently expressed in HEK293 cells. 250 μg cDNA of each construct is mixed with Fugene 6 and added to 1 liter HEK293 cells. Four days after the transfection, conditioned media are harvested for purification. huBACE1:Fc is purified by Protein A chromatography. The enzyme is stored at −80° C. in small aliquots. (See Yang, et. al., J. Neurochemistry, 91(6) 1249-59 (2004)
Serial dilutions of test compounds are prepared as described above. Compounds are further diluted 20× in KH2PO4 buffer. Ten μL of each dilution is added to each well on row A to H of a corresponding low protein binding black plate containing the reaction mixture (25 μL of 50 mM KH2PO4, pH 4.6, 1 mM TRITON® X-100, 1 mg/mL Bovine Serum Albumin, and 15 μM of FRET substrate) (See Yang, et. al., J. Neurochemistry, 91(6) 1249-59 (2004)). The content is mixed well on a plate shaker for 10 minutes. Fifteen μL of two hundred pM human BACE1 (1-460):Fc (See Vasser, et al., Science, 286, 735-741 (1999)) in the KH2PO4 buffer is added to the plate containing substrate and test compounds to initiate the reaction. The RFU of the mixture at time 0 is recorded at excitation wavelength 355 nm and emission wavelength 460 nm, after brief mixing on a plate shaker. The reaction plate is covered with aluminum foil and kept in a dark humidified oven at room temperature for 16 to 24 h. The RFU at the end of incubation is recorded with the same excitation and emission settings used at time 0. The difference of the RFU at time 0 and the end of incubation is representative of the activity of BACE1 under the compound treatment. RFU differences are plotted versus inhibitor concentration and a curve is fitted with a four-parameter logistic equation to obtain the IC50 values. (May, et al., Journal of Neuroscience, 31, 16507-16516 (2011)).

[1] = test system: Abeta released by primary cortical neurons from PDAPP transgenic embryonic mice; assay: PDAPP Primary Neuronal Assay (Abeta 1-40 and 1-42 sandwich ELISAs); format: cell-based; conditions: Mus musculus, Primary cortical neuron, 24 h incubation
Method: For in vitro enzymatic and cellular assays, test compounds are prepared in DMSO to make up a 10 mM stock solution. […] A confirmatory whole cell assay is also run in primary neuronal cultures generated from PDAPP transgenic embryonic mice (May, et al., Journal of Neuroscience, 31, 16507-16516 (2011)). Primary cortical neurons are prepared from Embryonic Day 16 PDAPP embryos and cultured in 96 well plates (15×10^4 cells/well in DMEM/F12 (1:1) plus 10% FBS). After 2 days in vitro, culture media is replaced with serum free DMEM/F12 (1:1) containing B27 supplement and 2 μM (final) of Ara-C (Sigma, C1768). At day 5 in vitro, neurons are incubated at 37° C. for 24 h in the presence/absence of inhibitors (diluted in DMSO) at the desired concentration. […] Natl. Acad. Sci. USA 94, 1550-1555 (1997)). The concentration of Abeta released in the conditioned media following the compound treatment corresponds to the activity of BACE1 under such conditions.

[2] = test system: Abeta 1-x peptide levels in brain of young female PDAPP mice; assay: In vivo Inhibition of Beta-Secretase (brain Abeta 1-x in PDAPP mice); set-up: species or system mouse; conditions: three hours after dosing, compared to vehicle-treated mice
From the text: Several animal models, including mouse, guinea pig, dog, and monkey, may be used to screen for inhibition of beta-secretase activity in vivo following compound treatment Animals used in this invention can be wild type, transgenic, or gene knockout animals. […] One to twenty-four hours following the administration of compound, animals are sacrificed, and brains are removed for analysis of Abeta 1-x. “Abeta 1-x” as used herein refers to the sum of Abeta species that begin with residue 1 and end with a C-terminus greater than residue 28. This detects the majority of Abeta species and is often called “total Abeta”. Total Abeta peptides (Abeta 1-x) levels are measured by a sandwich ELISA, using monoclonal 266 as a capture antibody and biotinylated 3D6 as reporting antibody. (See May, et al., Journal of Neuroscience, 31, 16507-16516 (2011)).
For acute studies, compound or appropriate vehicle is administered and animals are sacrificed at about 3 hours after dosing. Brain tissue, is obtained from selected animals and analyzed for the presence of Abeta 1-x. After chronic dosing brain tissues of older APP transgenic animals may also be analyzed for the amount of beta-amyloid plaques following compound treatment.

[3] = Abeta 1-40, Mean ± SEM, read-out: PDAPP Neuron A-beta (1-40) ELISA IC50
[4] = Abeta 1-42, Mean ± SEM, read-out: PDAPP Neuron A-beta (1-42) ELISA IC50

Sequence of human BACE1 (1-460):Fc (P56817 22-460): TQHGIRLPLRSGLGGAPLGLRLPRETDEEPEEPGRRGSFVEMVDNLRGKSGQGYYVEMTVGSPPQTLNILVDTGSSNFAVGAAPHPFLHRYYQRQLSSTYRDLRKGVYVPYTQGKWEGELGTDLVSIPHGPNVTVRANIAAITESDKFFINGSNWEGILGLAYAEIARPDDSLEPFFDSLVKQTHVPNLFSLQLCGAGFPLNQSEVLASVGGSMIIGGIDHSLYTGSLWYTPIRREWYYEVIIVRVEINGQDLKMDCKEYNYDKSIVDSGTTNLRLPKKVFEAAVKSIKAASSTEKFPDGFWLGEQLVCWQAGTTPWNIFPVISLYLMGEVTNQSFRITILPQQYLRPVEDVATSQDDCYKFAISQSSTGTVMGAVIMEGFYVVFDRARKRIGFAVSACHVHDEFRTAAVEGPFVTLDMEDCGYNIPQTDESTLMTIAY

With `Cl.NC1=N[C@@]2(c3cc(NC(=O)c4ccc(F)cn4)ccc3F)COC[C@@]2(F)CS1` [Example 1, N-[3-[(4aR,7aS)-2-Amino-4a-fluoro-5,7-dihydro-4H-furo[3,4-d][1,3]thiazin-7a-yl]-4-fluoro-phenyl]-5-fluoro-pyridine-2-carboxamide hydrochloride] the IC50 (human BACE1 (1-460):Fc) was 15.6 nM, the IC50 [1, 3] was 83.3 nM and the IC50 [1, 4] was 76.8 nM. The “Abeta 1-x peptide levels reduced in brain cortex” value ([2]; 30 mg/kg oral dose) was “approximately 48%” and the “Abeta 1-x peptide levels reduced in brain hippocampus” value ([2]; 30 mg/kg oral dose) was “approximately 37%”.

`COc1cnc(C(=O)Nc2ccc(F)c([C@]34COC[C@@]3(F)CSC(N)=N4)c2)cn1.Cl` [Example 2, N-[3-[(4aR,7aS)-2-Amino-4a-fluoro-5,7-dihydro-4H-furo[3,4-d][1,3]thiazin-7a-yl]-4-fluoro-phenyl]-5-methoxy-pyrazine-2-carboxamide hydrochloride] was tested, and the IC50 [1, 3] was 29.5 nM, the IC50 [1, 4] was 21.9 nM and the “Abeta 1-x peptide levels reduced in brain cortex” value ([2]; 10 mg/kg oral dose) was “approximately 45%”. For the same compound, the “Abeta 1-x peptide levels reduced in brain hippocampus” value ([2]; 10 mg/kg oral dose) was “approximately 40%”, the “Abeta 1-x peptide levels reduced in brain cortex” value ([2]; 30 mg/kg oral dose) was “approximately 54%” and the “Abeta 1-x peptide levels reduced in brain hippocampus” value ([2]; 30 mg/kg oral dose) was “approximately 52%”.

Compound `NC1=N[C@@]2(c3cc(NC(=O)c4cnc(OCC5(F)CC5)cn4)ccc3F)COC[C@@]2(F)CO1` [Example 57, N-[3-[(4aR,7aS)-2-Amino-4a-fluoro-5,7-dihydro-4H-furo[3,4-d][1,3]oxazin-7a-yl]-4-fluoro-phenyl]-5-[(1-fluorocyclopropyl)methoxy]pyrazine-2-carboxamide hydrochloride] has an IC50 (human BACE1 (1-460):Fc) of 25.7 nM, an IC50 [1, 3] of 186 nM and an IC50 [1, 4] of 182 nM.

`Cl.N#Cc1ccc(C(=O)Nc2ccc(F)c([C@]34COC[C@@]3(F)COC(N)=N4)c2)nc1` [Example 34, N-[3-[(4aR,7aS)-2-Amino-4a-fluoro-5,7-dihydro-4H-furo[3,4-d][1,3]oxazin-7a-yl]-4-fluoro-phenyl]-5-cyano-pyridine-2-carboxamide hydrochloride] gave an IC50 (human BACE1 (1-460):Fc) of 45 nM, an IC50 [1, 3] of 49.9 nM and an IC50 [1, 4] of 36.5 nM. The “Abeta 1-x peptide levels reduced in brain hippocampus” value ([2]; 10 mg/kg oral dose) was “approximately 26%”.

In the case of `Cl.N#Cc1ccc(C(=O)Nc2ccc(F)c([C@]34COC[C@@]3(F)CSC(N)=N4)c2)nc1` [Example 3, N-[3-[(4aR,7aS)-2-Amino-4a-fluoro-5,7-dihydro-4H-furo[3,4-d][1,3]thiazin-7a-yl]-4-fluoro-phenyl]-5-cyano-pyridine-2-carboxamide hydrochloride], the IC50 (human BACE1 (1-460):Fc) is reported as 6.66 nM, the IC50 [1, 3] is reported as 20.2 nM and the IC50 [1, 4] is reported as 16.3 nM. For the same compound, the “Abeta 1-x peptide levels reduced in brain cortex” value ([2]; 10 mg/kg oral dose) was “approximately 46%” and the “Abeta 1-x peptide levels reduced in brain hippocampus” value ([2]; 10 mg/kg oral dose) was “approximately 34%”.

Reference: patent US9029367B2, “BACE inhibitors” (Eli Lilly and Company, priority 2013, dated 2015)
